# Source: patent EP0361348A1, “Non-steroidal pharmaceutical composition and process for producing the same” (NIPPON HYPOX LABORATORIES INCORPORATED, priority 1988, dated 1990)
# Tested on: male SD rats
# Experiment: Anti-inflammatory action: carrageenin-induced sole swelling (plethysmometer)
# Type: in vivo
# Settings: 1 mg/kg in terms of Piroxicam, oral; for Swelling percent: 1 hour before carrageenin, mean, n=5
# Description: As test animals, there were used male SD rats each weighing about 200 g. As a test sample, there was used a suspension of each of the anti-inflammatory agent compositions No. 1-4 obtained in Examples 1-4 above, in a gum arabic solution (the concentration of Piroxicam in the suspension was 1%). This test sample was orally administered to each rat in an amount of 1 mg/kg in terms of Piroxicam. One hour after the administration of the test sample, an inflammatory agent (0.1 ml of a physiological saline solution containing 1% of carrageenin) was subcutaneously injected to each rat at the sole. Then, the sole volume was measured with the lapse of time using a plethysmometer, and swelling percent was calculated from the following formula. Swelling percent (%) = [(Ps - Po)/Po] x 100 where Po = sole volume before injection of carrageenin Ps = sole volume at a certain time after the injection of carrageenin For comparison, Piroxicam alone was orally administered in an amount of 1 mg/kg, in the same manner as above, and the change of swelling percent with time was examined.
structure (smiles),measurement,setting,value
"CN1C(C(=O)Nc2ccccn2)=C(O)c2ccccc2S1(=O)=O [Piroxicam alone, Piroxicam]",Swelling percent,0.5 hour after carrageenin injection,26.79%
same,Swelling percent,1 hour after carrageenin injection,39.51%
same,Swelling percent,1.5 hours after carrageenin injection,46.71%
same,Swelling percent,2 hours after carrageenin injection,45.72%
same,Swelling percent,3 hours after carrageenin injection,43.77%
same,Swelling percent,4 hours after carrageenin injection,44.33%
same,anti-inflammatory action,"result in words, from Table 1",significant anti-inflammatory action
